Source: article PMC5218480 (PLoS ONE, 2017)

System: MV-4-11 cells
Test: Gene expression microarray analysis (Affymetrix PrimeView) and GSEA
Assay type: cell-based, human
Parameters: RFU PODN (11730768_x_at) / Fold change /veh PODN (11730768_x_at) / RFU LINC00158 (11744669_a_at) / Fold change /veh LINC00158 (11744669_a_at) / RFU DUSP10 (11751237_a_at) / Fold change /veh DUSP10 (11751237_a_at) / RFU ID3 (11757404_x_at) / Fold change /veh ID3 (11757404_x_at) / RFU PLEKHG5 (11737974_s_at) / Fold change /veh PLEKHG5 (11737974_s_at) / RFU LRRC4B (11730491_at) / Fold change /veh LRRC4B (11730491_at) / RFU GIMAP4 (11747438_a_at) / Fold change /veh GIMAP4 (11747438_a_at) / RFU KRT8 (11758183_x_at) / Fold change /veh KRT8 (11758183_x_at) / RFU CNN1 (11734310_a_at) / Fold change /veh CNN1 (11734310_a_at) / RFU VPS37D (11726825_at) / Fold change /veh VPS37D (11726825_at) / RFU C10orf10 (11716522_x_at) / Fold change /veh C10orf10 (11716522_x_at) / RFU KIR2DL2 /// KIR2DL4 /// KIR2DL5A /// KIR2DL5B /// KIR2DS1 /// KIR2DS2 /// KIR2DS3 /// KIR2DS4 /// KIR3DL3 /// KIR3DL3 /// KIR3DS1 (11738374_at) / Fold change /veh KIR2DL2 /// KIR2DL4 /// KIR2DL5A /// KIR2DL5B /// KIR2DS1 /// KIR2DS2 /// KIR2DS3 /// KIR2DS4 /// KIR3DL3 /// KIR3DL3 /// KIR3DS1 (11738374_at) / RFU C1QL1 (11718748_at) / Fold change /veh C1QL1 (11718748_at) / RFU TMPRSS4 (11747572_a_at) / Fold change /veh TMPRSS4 (11747572_a_at) / RFU HAMP (11756126_x_at) / Fold change /veh HAMP (11756126_x_at) / RFU RNFT2 (11725882_a_at) / Fold change /veh RNFT2 (11725882_a_at) / RFU NR4A2 (11747474_a_at) / Fold change /veh NR4A2 (11747474_a_at) / RFU ABCC12 (11746883_a_at) / Fold change /veh ABCC12 (11746883_a_at) / RFU TMEM136 (11760407_x_at) / Fold change /veh TMEM136 (11760407_x_at) / RFU CLDN22 /// WWC2 (11732394_at) / Fold change /veh CLDN22 /// WWC2 (11732394_at) / RFU HLA-DPB1 (11760878_x_at) / Fold change /veh HLA-DPB1 (11760878_x_at) / RFU SPINT1 (11716480_a_at) / Fold change /veh SPINT1 (11716480_a_at) / RFU GAP43 (11754022_s_at) / Fold change /veh GAP43 (11754022_s_at) / RFU A4GNT (11735810_at) / Fold change /veh A4GNT (11735810_at) / RFU PRB3 (11715151_x_at) / Fold change /veh PRB3 (11715151_x_at) / RFU TUBB4B (11761932_at) / Fold change /veh TUBB4B (11761932_at) / RFU CAPN14 (11732068_a_at) / Fold change /veh CAPN14 (11732068_a_at) / RFU TMCC2 (11721928_a_at) / Fold change /veh TMCC2 (11721928_a_at) / RFU IRGQ (11745062_a_at) / Fold change /veh IRGQ (11745062_a_at) / RFU FAM174B (11720279_a_at) / Fold change /veh FAM174B (11720279_a_at) / RFU TMPRSS4 (11748680_a_at) / Fold change /veh TMPRSS4 (11748680_a_at) / RFU FAM212B (11763350_a_at) / Fold change /veh FAM212B (11763350_a_at) / RFU PLEKHG5 (11743358_a_at) / Fold change /veh PLEKHG5 (11743358_a_at) / RFU ZSCAN30 (11745921_a_at) / Fold change /veh ZSCAN30 (11745921_a_at) / RFU CMKLR1 (11741424_a_at) / Fold change /veh CMKLR1 (11741424_a_at) / RFU LOC101060620 /// MAPK8IP1 (11723275_at) / Fold change /veh LOC101060620 /// MAPK8IP1 (11723275_at) / RFU SPTSSB (11747773_x_at) / Fold change /veh SPTSSB (11747773_x_at) / RFU PRSS12 (11739890_at) / Fold change /veh PRSS12 (11739890_at) / RFU BIN1 (11741810_x_at) / Fold change /veh BIN1 (11741810_x_at) / RFU WNT11 (11732464_a_at) / Fold change /veh WNT11 (11732464_a_at) / RFU C10orf10 (11716521_a_at) / Fold change /veh C10orf10 (11716521_a_at) / RFU C5orf56 (11738089_at) / Fold change /veh C5orf56 (11738089_at) / RFU CYB561 (11721691_x_at) / Fold change /veh CYB561 (11721691_x_at) / RFU ANKRD19P (11752326_a_at) / Fold change /veh ANKRD19P (11752326_a_at) / RFU OR2T12 /// OR2T33 /// OR2T8 (11738714_s_at) / Fold change /veh OR2T12 /// OR2T33 /// OR2T8 (11738714_s_at) / RFU VCAN (11748164_a_at) / Fold change /veh VCAN (11748164_a_at) / RFU JSRP1 (11732532_at) / Fold change /veh JSRP1 (11732532_at) / RFU KRTAP10-11 (11738290_x_at) / Fold change /veh KRTAP10-11 (11738290_x_at) / RFU MYO3A (11730013_a_at) / Fold change /veh MYO3A (11730013_a_at) / RFU EBF3 (11725865_a_at) / Fold change /veh EBF3 (11725865_a_at) / RFU CAMK2N1 (11719241_x_at) / Fold change /veh CAMK2N1 (11719241_x_at) / RFU C5orf56 (11738088_a_at) / Fold change /veh C5orf56 (11738088_a_at) / RFU OLFML3 (11715873_a_at) / Fold change /veh OLFML3 (11715873_a_at) / RFU LOC100653217 /// NTM (11731650_a_at) / Fold change /veh LOC100653217 /// NTM (11731650_a_at) / RFU MAPK11 (11762145_a_at) / Fold change /veh MAPK11 (11762145_a_at) / RFU FIZ1 (11724087_x_at) / Fold change /veh FIZ1 (11724087_x_at) / RFU OASL (11726364_x_at) / Fold change /veh OASL (11726364_x_at) / RFU SOX15 (11748057_x_at) / Fold change /veh SOX15 (11748057_x_at) / RFU CD79A (11719716_a_at) / Fold change /veh CD79A (11719716_a_at) / RFU HIST1H1D (11736915_at) / Fold change /veh HIST1H1D (11736915_at) / RFU CASKIN2 (11723855_a_at) / Fold change /veh CASKIN2 (11723855_a_at) / RFU LOC730098 (11760151_x_at) / Fold change /veh LOC730098 (11760151_x_at) / RFU OR4N2 (11742367_at) / Fold change /veh OR4N2 (11742367_at) / RFU PRRT2 (11749266_a_at) / Fold change /veh PRRT2 (11749266_a_at) / RFU SNX32 (11753110_a_at) / Fold change /veh SNX32 (11753110_a_at) / RFU CDHR5 (11726645_a_at) / Fold change /veh CDHR5 (11726645_a_at) / RFU RCAN1 (11760418_a_at) / Fold change /veh RCAN1 (11760418_a_at) / RFU FAM167A (11723789_a_at) / Fold change /veh FAM167A (11723789_a_at) / RFU FAM26E (11764081_at) / Fold change /veh FAM26E (11764081_at) / RFU ISYNA1 (11749810_s_at) / Fold change /veh ISYNA1 (11749810_s_at) / RFU ACY1 (11761880_at) / Fold change /veh ACY1 (11761880_at) / RFU 11764098_at / Fold change /veh 11764098_at / RFU SAMD14 (11745864_x_at) / Fold change /veh SAMD14 (11745864_x_at) / RFU NPB (11741838_a_at) / Fold change /veh NPB (11741838_a_at) / RFU TMPRSS6 (11731388_a_at) / Fold change /veh TMPRSS6 (11731388_a_at) / RFU KRTAP10-2 (11738614_at) / Fold change /veh KRTAP10-2 (11738614_at) / RFU ARHGAP8 /// PRR5-ARHGAP8 (11727945_x_at) / Fold change /veh ARHGAP8 /// PRR5-ARHGAP8 (11727945_x_at) / RFU KRTAP5-7 /// NADSYN1 (11734609_at) / Fold change /veh KRTAP5-7 /// NADSYN1 (11734609_at) / RFU RASL12 (11751679_a_at) / Fold change /veh RASL12 (11751679_a_at) / RFU CDKN2B (11736163_a_at) / Fold change /veh CDKN2B (11736163_a_at) / RFU PRF1 (11729649_at) / Fold change /veh PRF1 (11729649_at) / RFU, ZNF638 /// ZNF638-IT1 / Fold change vs veh, ZNF638 /// ZNF638-IT1 / RFU, PANK3 / Fold change vs veh, PANK3 / RFU, SH3YL1 / Fold change vs veh, SH3YL1 / RFU, ZEB2 / Fold change vs veh, ZEB2 / RFU, NRIP1 / Fold change vs veh, NRIP1 / RFU, PTTG1IP / Fold change vs veh, PTTG1IP / RFU, CAPN2 / Fold change vs veh, CAPN2 / RFU, MED14 / Fold change vs veh, MED14 / RFU, SNORA58 / Fold change vs veh, SNORA58 / RFU, C1orf63 / Fold change vs veh, C1orf63 / RFU, LRRFIP1 / Fold change vs veh, LRRFIP1 / RFU, NDUFAF7 / Fold change vs veh, NDUFAF7 / RFU, SLC12A2 / Fold change vs veh, SLC12A2 / RFU, IBTK / Fold change vs veh, IBTK / RFU, ESF1 / Fold change vs veh, ESF1 / Fold change vs veh, TMEM50B / RFU, TAOK1 / Fold change vs veh, TAOK1 / RFU, ACBD3 / Fold change vs veh, ACBD3 / RFU, TMA16 / Fold change vs veh, TMA16 / RFU, RWDD3 / Fold change vs veh, RWDD3 / RFU, BCAT1 / Fold change vs veh, BCAT1 / RFU, EDEM3 / Fold change vs veh, EDEM3 / RFU, TMEM33 / Fold change vs veh, TMEM33 / RFU, WDR75 / Fold change vs veh, WDR75 / RFU, AHCTF1 / Fold change vs veh, AHCTF1 / RFU, TFRC / Fold change vs veh, TFRC / RFU, ZDHHC17 / Fold change vs veh, ZDHHC17 / RFU, NOM1 / Fold change vs veh, NOM1 / RFU, ARL8B / Fold change vs veh, ARL8B / RFU, ZBTB11 / Fold change vs veh, ZBTB11 / RFU, TAMM41 / Fold change vs veh, TAMM41 / RFU, KIAA1704 /// LOC100996395 / Fold change vs veh, KIAA1704 /// LOC100996395 / RFU, ING1 / Fold change vs veh, ING1 / RFU, TRMT61B / Fold change vs veh, TRMT61B / RFU, FUBP3 / Fold change vs veh, FUBP3 / RFU, TP53 / Fold change vs veh, TP53 / RFU, TNKS2 / Fold change vs veh, TNKS2 / RFU, ZFP14 / Fold change vs veh, ZFP14 / RFU, ACTR2 / Fold change vs veh, ACTR2 / RFU, PPP3R1 / Fold change vs veh, PPP3R1 / RFU, PIK3R1 / Fold change vs veh, PIK3R1 / RFU, HNRNPA1 / Fold change vs veh, HNRNPA1 / RFU, RNF170 / Fold change vs veh, RNF170 / RFU, ZNF28 / Fold change vs veh, ZNF28 / RFU, RNGTT / Fold change vs veh, RNGTT / RFU, OGT / Fold change vs veh, OGT / RFU, BRD1 / Fold change vs veh, BRD1 / RFU, MARS / Fold change vs veh, MARS / RFU, ZNF655 / Fold change vs veh, ZNF655 / RFU, FAHD1 / Fold change vs veh, FAHD1 / RFU, BDP1 / Fold change vs veh, BDP1 / RFU, LRRCC1 / Fold change vs veh, LRRCC1 / RFU, ARID1A / Fold change vs veh, ARID1A / RFU, ZNF146 / Fold change vs veh, ZNF146 / RFU, ZNF330 / Fold change vs veh, ZNF330 / RFU, GPN3 / Fold change vs veh, GPN3 / RFU, C9orf123 / Fold change vs veh, C9orf123 / RFU, N4BP2L2 / Fold change vs veh, N4BP2L2 / RFU, ARFIP1 / Fold change vs veh, ARFIP1 / RFU, FAM179B / Fold change vs veh, FAM179B / RFU, BCL10 / Fold change vs veh, BCL10 / RFU, UHRF1BP1L / Fold change vs veh, UHRF1BP1L / RFU, BET1 / Fold change vs veh, BET1 / RFU, CNOT2 / Fold change vs veh, CNOT2 / RFU, ZNF268 / Fold change vs veh, ZNF268 / Fold change vs veh, ZNF507 / RFU, DGCR2 / Fold change vs veh, DGCR2 / RFU, WDSUB1 / Fold change vs veh, WDSUB1 / Fold change vs veh, HSP90B1 /// MIR3652 / RFU, ADSS / Fold change vs veh, ADSS / RFU, GK / Fold change vs veh, GK / RFU, ZNF148 / Fold change vs veh, ZNF148 / RFU, TAF9 / Fold change vs veh, TAF9 / RFU, SLC1A5 / Fold change vs veh, SLC1A5 / RFU, SLMO2 / Fold change vs veh, SLMO2 / RFU, ABCC4 / Fold change vs veh, ABCC4 / RFU, LOC101060439 /// RAP1B / Fold change vs veh, LOC101060439 /// RAP1B / RFU, RFX7 / Fold change vs veh, RFX7 / RFU, GTPBP10 / Fold change vs veh, GTPBP10 / RFU, CNEP1R1 / Fold change vs veh, CNEP1R1 / RFU, BIVM-ERCC5 /// ERCC5 / Fold change vs veh, BIVM-ERCC5 /// ERCC5 / RFU, ILF3 / Fold change vs veh, ILF3 / RFU 11762660_at / Fold change /veh 11762660_at / RFU VCAN (11757783_s_at) / Fold change /veh VCAN (11757783_s_at) / RFU DDX43 (11728927_at) / Fold change /veh DDX43 (11728927_at) / RFU KRT8 (11758188_x_at) / Fold change /veh KRT8 (11758188_x_at) / RFU NKD1 (11759106_at) / Fold change /veh NKD1 (11759106_at) / RFU SRD5A1 (11742802_a_at) / Fold change /veh SRD5A1 (11742802_a_at) / RFU TPSAB1 /// TPSB2 (11721975_s_at) / Fold change /veh TPSAB1 /// TPSB2 (11721975_s_at) / RFU GSTM3 (11746129_a_at) / Fold change /veh GSTM3 (11746129_a_at) / RFU IL23R (11737362_x_at) / Fold change /veh IL23R (11737362_x_at) / RFU TMEM51 (11727254_a_at) / Fold change /veh TMEM51 (11727254_a_at) / RFU PIWIL2 (11732686_x_at) / Fold change /veh PIWIL2 (11732686_x_at) / RFU ORM1 (11744905_x_at) / Fold change /veh ORM1 (11744905_x_at) / RFU CCDC152 (11743942_at) / Fold change /veh CCDC152 (11743942_at) / RFU ECM1 (11717891_a_at) / Fold change /veh ECM1 (11717891_a_at) / RFU IL23R (11748794_a_at) / Fold change /veh IL23R (11748794_a_at) / RFU TNFAIP8L3 (11732012_x_at) / Fold change /veh TNFAIP8L3 (11732012_x_at) / RFU MBOAT4 (11741988_at) / Fold change /veh MBOAT4 (11741988_at) / RFU 11764193_at / Fold change /veh 11764193_at / RFU TMEM53 (11763286_at) / Fold change /veh TMEM53 (11763286_at) / RFU MAGEB2 (11727129_at) / Fold change /veh MAGEB2 (11727129_at) / RFU TMEM200A (11744735_a_at) / Fold change /veh TMEM200A (11744735_a_at) / RFU CCDC152 (11751479_a_at) / Fold change /veh CCDC152 (11751479_a_at) / RFU FAM211A (11726209_a_at) / Fold change /veh FAM211A (11726209_a_at) / RFU RGS16 (11746705_a_at) / Fold change /veh RGS16 (11746705_a_at) / RFU VCAN (11755009_s_at) / Fold change /veh VCAN (11755009_s_at) / RFU RHOB (11743442_s_at) / Fold change /veh RHOB (11743442_s_at) / RFU RGS16 (11720943_a_at) / Fold change /veh RGS16 (11720943_a_at) / RFU RGS16 (11720944_at) / Fold change /veh RGS16 (11720944_at) / RFU, VPS4B / Fold change vs veh, VPS4B / RFU, CREB1 / Fold change vs veh, CREB1 / RFU, DNAJC13 / Fold change vs veh, DNAJC13 / RFU, GNAQ / Fold change vs veh, GNAQ / RFU, CDK5R1 / Fold change vs veh, CDK5R1 / RFU, ZRANB3 / Fold change vs veh, ZRANB3 / RFU, CUL4A / Fold change vs veh, CUL4A / RFU, CCNY / Fold change vs veh, CCNY / RFU, UFL1 / Fold change vs veh, UFL1 / RFU, COG3 / Fold change vs veh, COG3 / RFU, DIAPH2 / Fold change vs veh, DIAPH2 / RFU, SKA2 / Fold change vs veh, SKA2 / RFU, AFF3 / Fold change vs veh, AFF3 / RFU, LMF1 / Fold change vs veh, LMF1 / RFU, IPO11 / Fold change vs veh, IPO11 / RFU, DFFB / Fold change vs veh, DFFB / RFU, FOXP1 / Fold change vs veh, FOXP1 / RFU, CARD8 / Fold change vs veh, CARD8 / RFU, STRN3 / Fold change vs veh, STRN3 / RFU, ADK / Fold change vs veh, ADK / RFU, RASSF2 / Fold change vs veh, RASSF2 / RFU, WIPF1 / Fold change vs veh, WIPF1 / RFU, LARP1B / Fold change vs veh, LARP1B / RFU, RASA1 / Fold change vs veh, RASA1 / RFU, RB1 / Fold change vs veh, RB1 / RFU, PPFIA1 / Fold change vs veh, PPFIA1 / RFU, MAT2A / Fold change vs veh, MAT2A / RFU, CCT5 / Fold change vs veh, CCT5 / RFU, WDR92 / Fold change vs veh, WDR92 / RFU, CUX1 / Fold change vs veh, CUX1 / RFU, TTC7A / Fold change vs veh, TTC7A / RFU, TMEM135 / Fold change vs veh, TMEM135 / RFU, DEPTOR / Fold change vs veh, DEPTOR / RFU, CPM / Fold change vs veh, CPM / RFU, DNAJB6 / Fold change vs veh, DNAJB6 / RFU, CACNA2D3 / Fold change vs veh, CACNA2D3 / RFU, DTX4 / Fold change vs veh, DTX4 / RFU, TFCP2 / Fold change vs veh, TFCP2 / RFU, GMCL1 /// GMCL1P1 / Fold change vs veh, GMCL1 /// GMCL1P1 / RFU, AEBP2 / Fold change vs veh, AEBP2 / RFU, SNHG1 /// SNORD22 /// SNORD25 /// SNORD26 /// SNORD27 /// SNORD28 /// SNORD29 /// SNORD31 / Fold change vs veh, SNHG1 /// SNORD22 /// SNORD25 /// SNORD26 /// SNORD27 /// SNORD28 /// SNORD29 /// SNORD31 / Fold change (Aza/veh), C12orf56 (ProbeSet 11735607_a_at) / Fold change (ACY-1035/veh), C12orf56 (ProbeSet 11735607_a_at) / Fold change (Aza/veh), FGFR1OP (ProbeSet 11751329_s_at) / Fold change (ACY-1035/veh), FGFR1OP (ProbeSet 11751329_s_at) / Fold change (Aza/veh), VPS36 (ProbeSet 11739960_a_at) / Fold change (ACY-1035/veh), VPS36 (ProbeSet 11739960_a_at) / RFU SYPL1 (11715823_x_at) / Fold change /veh SYPL1 (11715823_x_at) / RFU IGFBP7 (11715501_s_at) / Fold change /veh IGFBP7 (11715501_s_at) / RFU REEP3 (11722064_at) / Fold change /veh REEP3 (11722064_at) / RFU IGLL1 (11728026_x_at) / Fold change /veh IGLL1 (11728026_x_at): dose or concentration left out as unconfirmed
Details: ProbeSet 11730252_s_at; LIST B

Nc1ccc(-c2cccs2)cc1NC(=O)c1ccc2c(c1)cc(C1CC1)n2CCN1CCOCC1 [ACY-1035] was tested, and the “Fold change vs veh, AHCTF1” value was 0.96.
